The values below come from article PMC7726444 (Frontiers in Pharmacology, 2020).

Experiment [1] has as its target T1, doubly truncated TPH1 (ΔNH102-ΔCOOH402) (Homo sapiens, UniProt P17752).
T1 construct: The ΔNH102-ΔCOOH402 human TPH1 gene was cloned; six-His (C); made in house
In words: Tryptophan hydroxylase enzymatic activity assay (HPLC quantification of 5-OH-Trp), doubly truncated TPH1. Particulars: for pIC50: doubly truncated TPH1, 20 µM L-Trp, 200 µM BH4, 37°C, mean (95% confidence interval), three experiments in duplicate; for fold less potent inhibitor of TPH1 than omeprazole: relative to omeprazole TPH1 IC50; for reduction of TPH1 activity: 100 µM compound, preliminary activity assay. Type of experiment: biochemical.

The target of a further experiment is T2, WT full-length TPH2 (Homo sapiens, UniProt Q8IWU9).
T2 construct: both the doubly truncated TPH1 protein and WT full-length TPH2 protein; made in house
T2 sequence (Q8IWU9 1-490): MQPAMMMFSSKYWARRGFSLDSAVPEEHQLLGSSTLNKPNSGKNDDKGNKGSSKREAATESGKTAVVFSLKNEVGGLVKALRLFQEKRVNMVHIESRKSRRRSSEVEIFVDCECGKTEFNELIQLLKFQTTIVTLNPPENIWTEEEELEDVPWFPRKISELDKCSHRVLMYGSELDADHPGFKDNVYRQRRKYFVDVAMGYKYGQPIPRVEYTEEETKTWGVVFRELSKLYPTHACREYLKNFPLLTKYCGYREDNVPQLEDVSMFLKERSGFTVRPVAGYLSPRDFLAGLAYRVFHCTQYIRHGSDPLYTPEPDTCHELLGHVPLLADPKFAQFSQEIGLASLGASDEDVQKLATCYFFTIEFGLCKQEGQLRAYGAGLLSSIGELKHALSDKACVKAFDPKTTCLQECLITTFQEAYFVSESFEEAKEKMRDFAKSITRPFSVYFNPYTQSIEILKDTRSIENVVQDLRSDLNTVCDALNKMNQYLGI
Nature of the experiment: Tryptophan hydroxylase enzymatic activity assay, WT full-length TPH2. It is filed as biochemical. Particulars: mean (95% confidence interval), three experiments in duplicate.

Experiment [2] deals with T3, MAO-A (Homo sapiens, UniProt P21397).
T3 construct: purchased BioVision, Inc, Milpitas, CA
T3 sequence (P21397 1-527): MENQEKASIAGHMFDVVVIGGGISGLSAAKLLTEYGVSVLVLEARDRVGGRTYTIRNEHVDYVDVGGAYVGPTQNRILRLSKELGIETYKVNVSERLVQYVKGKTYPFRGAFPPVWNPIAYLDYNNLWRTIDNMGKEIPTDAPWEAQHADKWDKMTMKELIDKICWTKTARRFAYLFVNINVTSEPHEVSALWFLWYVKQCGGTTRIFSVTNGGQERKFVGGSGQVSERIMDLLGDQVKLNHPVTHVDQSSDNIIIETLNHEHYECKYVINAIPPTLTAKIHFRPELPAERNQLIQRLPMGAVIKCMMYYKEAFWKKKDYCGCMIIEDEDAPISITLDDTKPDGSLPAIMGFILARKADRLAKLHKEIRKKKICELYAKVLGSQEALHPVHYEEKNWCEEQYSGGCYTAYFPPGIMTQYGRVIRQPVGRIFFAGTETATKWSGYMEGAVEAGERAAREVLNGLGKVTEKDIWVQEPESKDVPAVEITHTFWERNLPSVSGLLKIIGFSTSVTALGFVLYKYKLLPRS
In words: MAO-A enzymatic activity assay (MAO-A Inhibitor Screening Kit, fluorimetric detection of H2O2). Type of experiment: biochemical. Particulars: 25°C, 15 min kinetic read; mean (95% confidence interval), three experiments. As to the method:
The experiments were conducted following the manufacturer’s (BioVision, Inc, Milpitas, CA) instructions and were based on the fluorimetric detection of H2O2, a byproduct of the enzymatic activity of MAO-A, by measuring the fluorescence (Excitation/Emission at 535/587 nm) kinetically at 25°C for 15 min using a Tecan Spark plate reader (Tecan Group Ltd, Männedorf, Switzerland).
Relative inhibition of MAO-A was calculated as a percentage using the following Eq. 2: %Relative inhibition=((Slope of EC−Slope of S)/Slope of EC)×100 (2)
The slopes for all samples, either containing Enzyme Control (EC) or test substance (S), were calculated by dividing the net change in relative fluorescence units (ΔRFU; RFU2–RFU1) by the time interval (Δt; t2 –t1).

For experiment [3], the target named is T3, MAO-A. On the set-up: method as in Petzer et al., 2013. Particulars: ref Petzer et al., 2013; cited from earlier work.

Structures are written as SMILES. pIC50: −log10 of the molar value. Read-outs that look alike come from different tables or passages of the source.

T1 sequence (P17752 102-402, stated change not applied): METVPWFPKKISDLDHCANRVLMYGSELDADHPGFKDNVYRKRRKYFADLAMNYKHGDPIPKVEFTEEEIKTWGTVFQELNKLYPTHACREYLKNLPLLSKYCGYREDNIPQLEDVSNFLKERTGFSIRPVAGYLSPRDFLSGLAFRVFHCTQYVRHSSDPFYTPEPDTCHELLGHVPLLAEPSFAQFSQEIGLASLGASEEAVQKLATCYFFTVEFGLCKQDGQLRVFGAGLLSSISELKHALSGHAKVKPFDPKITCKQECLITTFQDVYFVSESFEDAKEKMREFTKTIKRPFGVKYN

Regarding `Cc1c(OCC(F)(F)F)ccnc1C[S@@+]([O-])c1nc2ccccc2[nH]1` [(R)-lansoprazole], the pIC50 in experiment [1] is 4.73; against WT full-length TPH2 it was 5.47; against MAO-A [2], 3.86. Moreover, the “fold less potent inhibitor of TPH1 than omeprazole” value (“fold less potent inhibitor” below) in experiment [1] amounted to 6 fold.

Turning to `COc1ccc2nc([S@@+]([O-])Cc3ncc(C)c(OC)c3C)[nH]c2c1` [Esomeprazole], the pIC50 was 5.42 in experiment [1], 5.67 on WT full-length TPH2, 4.75 on MAO-A [2] and 4.64 at MAO-A [3].

In the case of `COc1ccnc(C[S+]([O-])c2nc3cc(-n4cccc4)ccc3[nH]2)c1C` (stereo not drawn) [Ilaprazole], the values for the pIC50 at WT full-length TPH2 and against MAO-A [2] were 6.28 and 4.54, respectively.

Take `Cc1c(OCC(F)(F)F)ccnc1C[S+]([O-])c1nc2ccccc2[nH]1` (stereo not drawn) [Lansoprazole]: the figures for the pIC50 (in experiment [1]; on WT full-length TPH2; against MAO-A [2]) were 4.61, 5.28 and 3.60, respectively. Further, in experiment [1], the “fold less potent inhibitor” value is recorded as 6 fold.

As to `COc1ccnc(C[S+]([O-])c2nc3ccc(OC(F)F)cc3[nH]2)c1OC` (stereo not drawn) [Pantoprazole], the figures for the pIC50 (in experiment [1]; against WT full-length TPH2; on MAO-A [2]) were 4.66, 5.09 and 3.34, respectively. Also, in experiment [1], the “fold less potent inhibitor” value stood at 6 fold.

With `COCCCOc1ccnc(C[S+]([O-])c2nc3ccccc3[nH]2)c1C` (stereo not drawn) [Rabeprazole], the pIC50 in experiment [1] was 5.12; against WT full-length TPH2, 5.67; against MAO-A [2], 4.89.

Regarding `COc1ccc2[nH]c([S+]([O-])Cc3ncc(C)c(OC)c3C)nc2n1` (stereo not drawn) [Tenatoprazole], the values for the pIC50 (in experiment [1]; against WT full-length TPH2; against MAO-A [2]) were 5.67, 5.31 and 4.53, respectively.

Consider `CC1CCc2cc(F)cc3c(=O)c(C(=O)O)cn1c23` (stereo not drawn) [flumequine], for which, in experiment [1], the “reduction of TPH1 activity” value is listed as “more than 50%” and the pIC50 is roughly 4.00.

In the case of `COC(=O)C1=C(C#N)NC(C)=C(C(=O)OC(C)C)C1c1cccc([N+](=O)[O-])c1` (stereo not drawn) [nilvadipine], in experiment [1], the “reduction of TPH1 activity” value is on record as “more than 50%” and the pIC50 was roughly 4.00.

As to `CSc1nc2cc(Cl)c(Oc3cccc(Cl)c3Cl)cc2[nH]1` [triclabendazole], in experiment [1], the “reduction of TPH1 activity” value is recorded as “more than 50%” and the pIC50 was roughly 4.00.
